Results as given in ChEMBL document CHEMBL1201862, “PubChem BioAssay data set” (2004).
Active and inactive are the calls of the source.

Legend:
[1] = viability of uninfected HEp-2 cells – cell-based, HTS, cytotoxicity control for RSV inhibitor project, dose response (AID 2410); format: functional; details: human respiratory syncytial virus
[2] = target: Neurotensin receptor type 1 (Homo sapiens, UniProt P30989); format: functional;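 further: Image-based confirmatory dose-response assay measuring agonist activity at NTR1; NTR1-expressing U2OS osteosarcoma cells imaged for beta-arrestin GFP spot formation; agonist potency where compounds increase beta-arrestin recruitment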
[3] = target: T1, Microphthalmia-associated transcription factor (Homo sapiens, UniProt O75030); assay: reducers of TRPM1 reporter luminescence, concentration series – cell-based, SK-MEL-5, cherry-picked, set 3, MITF inhibitor project, dose response (AID 493073); format: functional;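 further: SK-MEL-5 melanoma cells with luciferase driven by the MITF target TRPM1 promoter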
T1 sequence (O75030 whole entry): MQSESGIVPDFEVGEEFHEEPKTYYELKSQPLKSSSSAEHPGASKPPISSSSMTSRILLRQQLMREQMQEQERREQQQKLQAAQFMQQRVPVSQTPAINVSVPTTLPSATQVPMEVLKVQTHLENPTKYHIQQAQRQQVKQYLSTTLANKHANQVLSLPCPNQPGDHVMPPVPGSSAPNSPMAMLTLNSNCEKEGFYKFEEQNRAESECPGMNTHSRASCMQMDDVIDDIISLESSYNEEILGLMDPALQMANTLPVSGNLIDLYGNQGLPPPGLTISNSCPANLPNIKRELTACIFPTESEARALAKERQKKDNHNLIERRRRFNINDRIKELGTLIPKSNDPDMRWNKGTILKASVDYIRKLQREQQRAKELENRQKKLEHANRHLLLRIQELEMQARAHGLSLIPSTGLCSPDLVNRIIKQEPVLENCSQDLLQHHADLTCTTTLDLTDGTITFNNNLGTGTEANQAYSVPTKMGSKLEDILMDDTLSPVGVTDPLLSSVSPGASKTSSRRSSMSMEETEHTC

[4] = HEK-293T cell viability reduction – luminescence, B-cell screen hits, cytotoxicity control for BCR NF-kB inhibitor project, dose response (AID 489021); format: functional, cell-based;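 further: HEK-293T cells carrying an NF-kB luciferase reporter; cells exposed to compound for about 14 hours before viability readout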
[5] = target: Trypsin (Sus scrofa, UniProt P00761); assay: trypsin protease activity blockade – biochemical, quenched peptide fluorescence, cherry-pick, selectivity assay for Rce1 protease inhibitor project, dose response (AID 488789)
[6] = target: T2, CAAX prenyl protease 1 (Saccharomyces cerevisiae S288c, UniProt P47154); assay: yeast CAAX protease Ste24 inhibition – biochemical, S. cerevisiae, plate reader, cherry-pick, dose response (AID 488815)
T2 sequence (P47154 whole entry): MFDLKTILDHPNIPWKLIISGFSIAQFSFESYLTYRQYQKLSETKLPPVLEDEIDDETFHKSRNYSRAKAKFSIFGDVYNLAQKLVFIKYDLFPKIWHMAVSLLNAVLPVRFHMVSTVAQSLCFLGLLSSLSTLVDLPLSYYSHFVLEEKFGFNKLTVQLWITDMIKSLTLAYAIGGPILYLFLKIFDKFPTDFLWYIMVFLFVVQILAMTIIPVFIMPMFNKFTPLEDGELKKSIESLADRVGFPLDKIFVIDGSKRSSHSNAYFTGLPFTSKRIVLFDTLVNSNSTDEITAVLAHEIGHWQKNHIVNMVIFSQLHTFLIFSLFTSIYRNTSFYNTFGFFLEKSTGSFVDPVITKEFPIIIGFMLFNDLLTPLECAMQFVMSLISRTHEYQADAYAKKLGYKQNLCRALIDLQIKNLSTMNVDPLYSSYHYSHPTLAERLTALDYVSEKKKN

[7] = target: T3, CAAX prenyl protease 2 (Homo sapiens, UniProt Q9Y256); assay: inhibition of Ras-converting CAAX protease Rce1 – biochemical, yeast membranes, quenched-peptide fluorescence, cherry-pick, dose response (AID 588849)
T3 sequence (Q9Y256 whole entry): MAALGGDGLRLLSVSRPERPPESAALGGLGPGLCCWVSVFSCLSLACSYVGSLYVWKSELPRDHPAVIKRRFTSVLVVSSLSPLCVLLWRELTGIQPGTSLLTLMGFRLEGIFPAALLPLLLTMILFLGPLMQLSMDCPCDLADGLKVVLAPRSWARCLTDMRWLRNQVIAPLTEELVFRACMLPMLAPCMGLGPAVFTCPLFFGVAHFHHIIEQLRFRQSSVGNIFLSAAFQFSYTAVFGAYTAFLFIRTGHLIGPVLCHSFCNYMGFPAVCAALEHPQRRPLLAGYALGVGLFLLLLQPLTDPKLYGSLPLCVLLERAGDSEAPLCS

[8] = target: T4, Cytochrome P450 1A2 (Homo sapiens, UniProt P05177);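 further: PubChem cytochrome P450 panel assay, CYP1A2 panel member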
T4 sequence (P05177 whole entry): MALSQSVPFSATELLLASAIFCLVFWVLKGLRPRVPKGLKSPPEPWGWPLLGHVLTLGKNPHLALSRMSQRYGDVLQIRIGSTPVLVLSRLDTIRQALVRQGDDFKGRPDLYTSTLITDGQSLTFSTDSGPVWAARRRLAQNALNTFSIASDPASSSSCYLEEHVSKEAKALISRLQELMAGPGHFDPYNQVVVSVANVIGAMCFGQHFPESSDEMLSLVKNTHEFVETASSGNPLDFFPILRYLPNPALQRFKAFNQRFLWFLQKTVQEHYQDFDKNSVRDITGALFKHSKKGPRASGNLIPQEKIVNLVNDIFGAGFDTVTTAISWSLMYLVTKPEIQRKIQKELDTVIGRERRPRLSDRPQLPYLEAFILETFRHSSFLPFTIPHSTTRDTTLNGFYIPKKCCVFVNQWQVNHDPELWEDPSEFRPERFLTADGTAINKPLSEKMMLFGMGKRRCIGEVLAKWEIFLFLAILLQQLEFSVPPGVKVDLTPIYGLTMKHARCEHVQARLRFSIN

[9] = target: Cytochrome P450 3A4 (Homo sapiens, UniProt P08684);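 further: CYP3A4 tested as one member of a cytochrome P450 panel screen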
[10] = target: Eukaryotic translation initiation factor 4E (Mus musculus, UniProt P63073); assay: blockers of eIF4G binding by eIF4E – biochemical, TR-FRET, dose response (AID 855); format: functional;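 further: potency for disrupting eIF4E binding to eIF4GI seen as loss of FRET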
[11] = target: T5, Replicative DNA helicase DnaB (Mycobacterium tuberculosis, UniProt P9WMR3); assay: DnaB intein splicing inhibitors, dose response, biochemical, cell-free fluorescence (AID 449749); format: functional
T5 sequence (P9WMR3 whole entry): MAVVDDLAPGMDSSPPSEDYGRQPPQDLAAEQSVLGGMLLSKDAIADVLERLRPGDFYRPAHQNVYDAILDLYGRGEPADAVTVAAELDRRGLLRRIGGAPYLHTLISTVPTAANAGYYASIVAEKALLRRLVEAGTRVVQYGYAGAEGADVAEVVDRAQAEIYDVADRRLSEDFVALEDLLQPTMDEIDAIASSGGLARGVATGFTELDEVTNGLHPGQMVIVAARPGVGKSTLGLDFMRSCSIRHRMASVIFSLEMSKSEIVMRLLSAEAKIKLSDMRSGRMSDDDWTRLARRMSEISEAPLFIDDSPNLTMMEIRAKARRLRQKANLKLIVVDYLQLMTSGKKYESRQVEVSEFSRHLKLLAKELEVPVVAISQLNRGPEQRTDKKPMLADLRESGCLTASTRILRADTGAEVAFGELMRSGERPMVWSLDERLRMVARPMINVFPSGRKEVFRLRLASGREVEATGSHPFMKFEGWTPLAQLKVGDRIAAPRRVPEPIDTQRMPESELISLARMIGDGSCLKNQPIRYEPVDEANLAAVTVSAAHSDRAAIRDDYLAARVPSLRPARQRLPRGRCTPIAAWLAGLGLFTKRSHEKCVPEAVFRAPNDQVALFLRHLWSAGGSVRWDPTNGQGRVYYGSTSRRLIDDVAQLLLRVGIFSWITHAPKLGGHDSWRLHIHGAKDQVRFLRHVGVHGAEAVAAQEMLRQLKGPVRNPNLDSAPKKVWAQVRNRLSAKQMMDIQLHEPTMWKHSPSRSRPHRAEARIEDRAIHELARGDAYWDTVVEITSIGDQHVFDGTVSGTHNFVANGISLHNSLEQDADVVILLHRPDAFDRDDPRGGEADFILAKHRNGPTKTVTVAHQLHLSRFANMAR

[12] = target: T6, Protein RecA (Mycobacterium tuberculosis, UniProt P9WHJ3); assay: Fluorescence Cell-Free Homogeneous Dose Retest to Identify Inhibitors of RecA-Intein Splicing Activity. [Related pubchem assays (depositor defined):AID2097, AID2223, AID489010, AID492950]; format: functional
T6 sequence (P9WHJ3 whole entry): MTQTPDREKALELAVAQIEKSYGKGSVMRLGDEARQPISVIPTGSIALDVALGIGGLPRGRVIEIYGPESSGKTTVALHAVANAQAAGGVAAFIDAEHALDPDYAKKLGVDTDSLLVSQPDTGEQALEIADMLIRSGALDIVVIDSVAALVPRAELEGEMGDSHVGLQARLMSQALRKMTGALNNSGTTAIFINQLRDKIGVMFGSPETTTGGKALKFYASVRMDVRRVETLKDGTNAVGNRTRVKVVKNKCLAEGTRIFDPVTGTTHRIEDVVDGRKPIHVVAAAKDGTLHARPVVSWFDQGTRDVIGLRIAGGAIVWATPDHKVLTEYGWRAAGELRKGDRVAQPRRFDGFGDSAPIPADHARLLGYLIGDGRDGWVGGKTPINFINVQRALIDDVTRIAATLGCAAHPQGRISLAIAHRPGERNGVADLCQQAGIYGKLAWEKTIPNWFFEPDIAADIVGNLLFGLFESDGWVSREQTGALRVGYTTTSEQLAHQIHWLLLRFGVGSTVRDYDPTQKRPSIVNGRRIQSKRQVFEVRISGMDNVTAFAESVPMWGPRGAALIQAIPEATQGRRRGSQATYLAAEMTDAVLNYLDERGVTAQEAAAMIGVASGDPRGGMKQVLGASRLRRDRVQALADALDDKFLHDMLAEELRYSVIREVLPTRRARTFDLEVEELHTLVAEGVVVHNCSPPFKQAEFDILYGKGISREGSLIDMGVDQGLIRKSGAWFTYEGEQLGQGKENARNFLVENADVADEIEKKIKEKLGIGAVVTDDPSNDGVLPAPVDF

[13] = target: T7, Histone-lysine N-methyltransferase NSD2 (Homo sapiens, UniProt O96028); format: biochemical
T7 sequence (O96028 whole entry): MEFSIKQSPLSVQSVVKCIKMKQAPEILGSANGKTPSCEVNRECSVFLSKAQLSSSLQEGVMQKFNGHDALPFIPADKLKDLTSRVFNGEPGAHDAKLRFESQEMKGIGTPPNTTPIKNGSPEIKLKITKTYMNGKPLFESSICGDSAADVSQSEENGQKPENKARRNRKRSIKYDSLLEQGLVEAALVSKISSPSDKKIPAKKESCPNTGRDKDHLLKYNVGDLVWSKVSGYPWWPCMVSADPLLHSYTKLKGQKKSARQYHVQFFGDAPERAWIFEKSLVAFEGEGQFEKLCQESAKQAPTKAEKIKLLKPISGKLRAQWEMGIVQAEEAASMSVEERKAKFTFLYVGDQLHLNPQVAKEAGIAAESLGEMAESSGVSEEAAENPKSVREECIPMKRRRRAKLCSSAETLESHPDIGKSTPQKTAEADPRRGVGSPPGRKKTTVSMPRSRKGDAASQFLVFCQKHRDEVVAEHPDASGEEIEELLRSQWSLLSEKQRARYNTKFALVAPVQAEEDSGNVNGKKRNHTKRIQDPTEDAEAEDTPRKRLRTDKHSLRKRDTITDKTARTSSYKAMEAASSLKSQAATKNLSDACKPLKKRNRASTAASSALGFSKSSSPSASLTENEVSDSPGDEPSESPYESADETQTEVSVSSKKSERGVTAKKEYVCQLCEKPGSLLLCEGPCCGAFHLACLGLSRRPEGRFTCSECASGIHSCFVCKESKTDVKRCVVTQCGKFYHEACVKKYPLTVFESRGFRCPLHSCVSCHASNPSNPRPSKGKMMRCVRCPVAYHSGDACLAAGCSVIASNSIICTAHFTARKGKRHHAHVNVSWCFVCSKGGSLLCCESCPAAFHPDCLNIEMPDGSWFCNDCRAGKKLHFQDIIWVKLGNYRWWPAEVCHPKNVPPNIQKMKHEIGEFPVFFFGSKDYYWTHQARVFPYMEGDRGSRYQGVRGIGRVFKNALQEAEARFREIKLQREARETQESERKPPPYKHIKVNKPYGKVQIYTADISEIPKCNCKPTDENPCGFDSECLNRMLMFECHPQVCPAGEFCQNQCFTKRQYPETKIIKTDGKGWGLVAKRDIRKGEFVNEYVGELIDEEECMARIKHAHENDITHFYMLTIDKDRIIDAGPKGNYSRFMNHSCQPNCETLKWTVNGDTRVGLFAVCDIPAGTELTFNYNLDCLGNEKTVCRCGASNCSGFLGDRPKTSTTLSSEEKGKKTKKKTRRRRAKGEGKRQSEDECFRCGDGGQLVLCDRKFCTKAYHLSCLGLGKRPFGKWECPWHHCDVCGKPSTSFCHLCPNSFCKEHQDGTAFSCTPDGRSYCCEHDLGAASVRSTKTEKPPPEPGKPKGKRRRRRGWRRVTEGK

Sequence of Trypsin (P00761 whole entry): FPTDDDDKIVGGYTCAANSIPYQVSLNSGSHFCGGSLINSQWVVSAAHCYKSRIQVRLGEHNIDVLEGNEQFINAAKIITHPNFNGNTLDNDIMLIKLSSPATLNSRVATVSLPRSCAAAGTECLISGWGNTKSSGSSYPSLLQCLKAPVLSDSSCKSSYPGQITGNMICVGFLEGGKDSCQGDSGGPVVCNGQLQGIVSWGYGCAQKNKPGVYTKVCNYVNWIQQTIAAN
Sequence of Eukaryotic translation initiation factor 4E (P63073 whole entry): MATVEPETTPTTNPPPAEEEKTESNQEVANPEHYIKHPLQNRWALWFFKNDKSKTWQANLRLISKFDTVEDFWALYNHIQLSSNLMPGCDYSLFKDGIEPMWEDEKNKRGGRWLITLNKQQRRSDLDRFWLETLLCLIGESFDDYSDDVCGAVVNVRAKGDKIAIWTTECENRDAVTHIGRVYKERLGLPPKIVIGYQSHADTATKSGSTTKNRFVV
Sequence of Neurotensin receptor type 1 (P30989 whole entry): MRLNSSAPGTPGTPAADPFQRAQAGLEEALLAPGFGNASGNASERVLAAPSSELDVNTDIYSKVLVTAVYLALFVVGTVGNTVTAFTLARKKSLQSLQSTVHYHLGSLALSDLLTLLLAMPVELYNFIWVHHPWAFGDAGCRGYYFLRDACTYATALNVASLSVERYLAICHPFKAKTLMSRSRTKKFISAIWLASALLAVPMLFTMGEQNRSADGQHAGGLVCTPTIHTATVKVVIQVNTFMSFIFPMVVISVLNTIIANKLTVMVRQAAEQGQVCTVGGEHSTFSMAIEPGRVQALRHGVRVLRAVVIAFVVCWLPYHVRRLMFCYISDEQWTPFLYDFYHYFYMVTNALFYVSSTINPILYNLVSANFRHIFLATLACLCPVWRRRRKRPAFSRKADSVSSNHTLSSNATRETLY
Sequence of Cytochrome P450 3A4 (P08684 whole entry): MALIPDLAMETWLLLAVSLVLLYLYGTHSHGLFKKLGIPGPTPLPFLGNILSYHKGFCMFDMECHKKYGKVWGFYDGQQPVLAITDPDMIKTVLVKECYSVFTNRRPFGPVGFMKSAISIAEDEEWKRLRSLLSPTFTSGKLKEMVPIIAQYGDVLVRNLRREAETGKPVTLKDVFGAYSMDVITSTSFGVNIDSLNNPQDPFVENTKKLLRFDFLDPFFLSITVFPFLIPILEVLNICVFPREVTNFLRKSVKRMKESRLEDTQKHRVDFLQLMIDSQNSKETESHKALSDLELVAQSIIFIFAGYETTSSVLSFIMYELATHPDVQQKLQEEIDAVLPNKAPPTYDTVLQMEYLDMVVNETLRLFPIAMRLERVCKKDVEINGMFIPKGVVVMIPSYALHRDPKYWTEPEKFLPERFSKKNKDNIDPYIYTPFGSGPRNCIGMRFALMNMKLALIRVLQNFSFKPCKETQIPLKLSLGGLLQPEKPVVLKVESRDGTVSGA

| SMILES | AC50 [5] | AC50 [6] | AC50 [7] | IC50 [10] | other results |
| --- | --- | --- | --- | --- | --- |
| Cc1cc(C)cc(N2C(=O)NC(=O)/C(=C\c3cccn3-c3ccccc3)C2=O)c1 |  |  |  |  | CC50 [1]: 19.9 µM (active); EC50 [2]: 10.3 µM (active); AC50 [3]: 13.8 µM (active); IC50 [4]: > 80 µM (inactive) |
| CCOc1c2ccc(C(=O)NCc3ccco3)cc2nn1CCOC | 16.5 µM (active) | 11.5 µM (active) | 12.3 µM (active) |  | AC50 [8]: 15.8 µM (inconclusive); AC50 [9]: 22.4 µM (inconclusive) |
| COc1ccc(CNC(=O)c2ccccc2NS(C)(=O)=O)cc1 | 12.4 µM (active) | 5.47 µM (active) | 11.7 µM (active) |  |  |
| CCN(CC)c1ccc(NC(=O)CCCOc2cccc(C)c2)cc1 |  |  |  | 50 µM (inactive) |  |
| CN(C)/C=N/c1c(C#N)cnn1-c1ncnc2sc(-c3ccccc3)cc12 | 8.06 µM (active) |  | 19.1 µM (active) |  |  |
| CC(=O)c1c(C)nc(-c2ccc(Cl)cc2)nc1/N=C/N(C)C |  |  |  | 40 µM (inactive) | AC50 [11]: > 380 µM (inactive); EC50 [12]: > 380 µM (inactive); AC50 [13]: > 20 µM (inactive) |
